Source: US11028137B2, “Mutant islet amyloid polypeptides with improved solubility and methods for using the same” (priority 2017, dated 2021)
Where a SMILES comes first, the peptide text is derived from it.

Columns and labels:
[1] = pH 7.4
Protocol: Dry peptides were dissolved into 10 mM PBS buffer at pH 7.4 at different initial concentrations, and were incubated for 7 days at 25° C. without stirring. Each sample was then centrifuged using a Beckman Coulter Microfuge 22R Centrifuge at 24° C. for 20 min. The relative centrifugal force used was 1.75×10^4 g. Solubility of each sample was approximated by measuring the absorbance of the corresponding supernatant at 280 nm measured using a Beckman Coulter DU 730 UV/Vis Spectrophotometer.
Each peptide tested was incubated in 10 mM PBS buffer at pH 7.4 for 7 days at three different concentrations (100 μM, 500 μM and 1 mM) and the solution was then centrifuged. The apparent solubility was represented by the absorbance of the supernatant of each sample measured at 280 nm. The extinction coefficients of all polypeptides are very similar at 280 nm since they all contain the same aromatic residues and each contains a disulfide bond. […] A peptide which is soluble at 1 mM and above will show a linear dependence of absorbance on initial concentration. A peptide which is less soluble will deviate from linearity. The peptides were centrifuged after 7 days and their apparent solubility measured by measuring the absorbance at 280 nm of the supernatant of each solution. The apparent concentration refers to the concentration which would be obtained if all of the peptide dissolved. The absorbance of the supernatant is directly proportion to the amount of peptide in solution.

[2] = Thioflavin-T fluorescence assay of amyloid formation kinetics; format: physicochemical; conditions: 16 μM peptide, 10 mM PBS pH 7.4, 25° C., no stirring; 1 week and 6 week incubations
Protocol: Sample Preparation. Each peptide was dissolved into 100% hexafluoroisoproponal (HFIP) to make a 0.5 mM stock solution. Stock solutions were filtered using […] Acrodisc syringe filter with a GHP membrane and the required amount of peptide was lyophilized overnight to remove HFIP. Dry peptide was dissolved into the appropriate buffer for the fluorescence assays. Fluorescence Assays. Thioflavin-T binding assays, conducted without HFIP or stirring at 25° C., were utilized to monitor amyloid formation kinetics. Fluorescence measurements were performed using a Spectramax Gemini EM plate reader. Corning 96-well non-binding surface black plates with lids were used and were sealed with polyethylene sealing tape. Samples were prepared by dissolving dry peptide into 10 mM PBS buffer (pH 7.4) and 32 μM thioflavin-T solution immediately before the measurement. Thioflavin-T fluorescence was measured with 450 nm excitation and emission at 485 nm was monitored. The final concentrations were 16 μM peptides. After creating the mutant-hIAPP polypeptides of the present disclosure, applicants tested the propensity of the different analogs to form amyloid at pH 7.4 using thioflavin-T fluorescence assays (FIGS. 2A-D) and TEM (FIGS. 3A-E). […] Amyloid formation follows a sigmoidal time course consisting of a lag phase in which few, if any, fibrils are formed, followed by a growth phase and a saturation phase in which amyloid fibrils are in equilibrium with soluble peptide.

[3] = molecular target: T1, human amylin receptor (hAMY1(a)) (Homo sapiens, UniProt O60894+P30988); assay: cAMP production (LANCE cAMP assay) in transfected Cos-7 cells; format: cell-based; conditions: Cos-7 cells expressing hAMY1(a); for EC50: cAMP production, mean ± spread, read-out: Human Amylin1(a) receptor binding data pEC50 (converted)
T1 construct: expressed in transfected cells; host or cells: Cos-7 cells, transient transfection with PEI, pcDNA3.1 vectors
T1 sequence (O60894 27-148 partner, one chain of several): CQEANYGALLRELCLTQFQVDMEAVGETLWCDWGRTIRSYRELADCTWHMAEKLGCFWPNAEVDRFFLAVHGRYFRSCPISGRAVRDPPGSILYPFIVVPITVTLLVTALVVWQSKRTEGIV
Protocol: (§1) Cell Culture and Transfection. Cos-7 cells were cultured and transfected for receptor activity assays as previously described in Bailey, R. J., and Hay, D. L. Peptides (2006) 27, pp. 1367-1375, the entire contents of which is incorporated herein by reference. Specifically, cells were cultured in Dulbucco's modified eagle medium (DMEM) with 8% heat-inactivated fetal bovine serum (FBS) and kept in a 37° C. humidified 95% air/5% CO2 incubator. Cells were plated at a density of 18,000-20,000 cells/well (depending on cell passage) in 96-well culture plate and returned to the incubator for approximately 18-24 hours. Transient transfections were carried out using polyethyleneimine (PEI) as described previously and maintained at 37° C. in a humidified 95% air/5% CO2 incubator for 36-48 hours. All DNA constructs used in this these were in pcDNA3.1 vectors.
(§2) cAMP Assay: Measurement of intracellular cAMP was achieved using a time-resolved fluorescent resonance energy transfer assay (LANCE cAMP assay, PerkinElmer), similar to the previously described Alphascreen assay as described in Gingell, J. J., et al. Peptides (2010) 31, pp. 1400-1404, with the following changes. Following stimulation with peptide agonist, cAMP assay media from the wells was thoroughly aspirated and 50 μl of ice-cold absolute ethanol added to each well. Plates were then placed in a −30° C. freezer for 10 minutes or overnight prior to assay, then removed and allowed to air dry in a fume hood for 1-2 hours. After ethanol evaporated from the plates, 50 μl of LANCE detection buffer (lysis buffer, 0.35% Triton X-100, 50 mM HEPES and 10 mM calcium chloride in ddH2O, pH 7.4) was added per well and left on a plate shaker for 10-15 minutes at room temperature. Meanwhile, a cAMP standard curve was generated using LANCE detection buffer and a serially diluted cAMP standard (50 μM) ranging from 1 μM to 10 pM. The serially diluted cAMP standards (5 μl) and cell lysates (5 μl) were transferred into 384-well opti-plates and sealed with a Sealplate®-A-384-well microplate adhesive film and briefly centrifuged (10 seconds, 500 rpm, 23° C.). A 1:200 dilution of LANCE assay Alexa Fluor® 647 anti-cAMP antibody was prepared in detection buffer and 5 μl added to each well. Plates were sealed and briefly centrifuged again (10 seconds, 500 rpm, 23° C.) and left to incubate, sealed for 30 minutes at room temperature. During this incubation, detection mix was made up consisting of detection buffer, Europium-W8044 labelled streptavidin (1:4500) and biotin-cAMP (1:1500). After 30 minutes incubation, 10 μl of detection mix was added to each well, plates were centrifuged (30 seconds, 500 rpm, 23° C.), sealed and left to incubate for 1 hour at room temperature. Plates were read after an overnight incubation on an Envision plate reader. A standard curve was included in each experiment to ensure accurate quantification of cAMP.
(§3) Data Analysis for Receptor Assays: Data were derived from independent experiments for statistical analysis and all experiments were performed and replicated. Quantification of cAMP was obtained from a standard curve included in each experiment and plotted using the software GraphPad Prism 6.0 (GraphPad Software Inc, San Diego, Calif., USA) with a non-linear regression 3-parameter logistic equation with a Hill Slope of 1 to determine the pEC50. The pEC50 values from the fits were combined from different experimental days and statistically tested for difference from the WT peptide using the Student's t-test with statistical significance defined as * p<0.05, ** p<0.01, *** p<0.001. Due to variability in amount of cAMP produced between experimental days, data were normalized to the control peptide for each experiment to obtain Emax values. For each analogue, data were normalized to the maximum (Emax) and minimum (Emin) responses of h-amylin. […]

[4] = molecular target: T2, human calcitonin receptor (hCT(a)) (Homo sapiens, UniProt P30988); assay: as above; format: cell-based; conditions: Cos-7 cells expressing hCT(a); for EC50: cAMP production, mean ± spread, read-out: Human calcitonin receptor binding data pEC50 (converted)
T2 construct: expressed in transfected cells; host or cells: Cos-7 cells, transient transfection with PEI, pcDNA3.1 vectors
T2 sequence (P30988 25-474): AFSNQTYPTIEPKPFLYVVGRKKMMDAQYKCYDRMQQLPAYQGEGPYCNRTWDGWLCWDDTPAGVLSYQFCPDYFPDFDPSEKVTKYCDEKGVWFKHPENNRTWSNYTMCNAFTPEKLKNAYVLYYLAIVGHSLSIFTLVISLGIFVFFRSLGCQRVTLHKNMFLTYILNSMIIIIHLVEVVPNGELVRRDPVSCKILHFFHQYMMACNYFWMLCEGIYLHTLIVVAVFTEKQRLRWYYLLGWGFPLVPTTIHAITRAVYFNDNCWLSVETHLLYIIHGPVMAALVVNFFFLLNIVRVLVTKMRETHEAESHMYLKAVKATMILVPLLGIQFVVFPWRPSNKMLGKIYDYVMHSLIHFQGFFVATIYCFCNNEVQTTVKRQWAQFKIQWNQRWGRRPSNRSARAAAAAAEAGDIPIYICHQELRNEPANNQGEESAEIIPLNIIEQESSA
Protocol: as §1, §2, §3

[5] = Transmission electron microscopy (TEM) of amyloid aggregates; format: physicochemical; conditions: after 7 days of incubation, end of kinetic experiment
Protocol: Transmission Electron Microscopy (TEM). TEM images were recorded using an FEI Bio TwinG^2 Transmission Electron Microscope at the central microscopy center at Stony Brook University. 15 μL aliquots of the samples used for fluorescence assays were removed at the end of each kinetic experiment, blotted on a carbon formvar-coated 300-mesh copper grid for 1 min and then negatively stained with saturated uranyl acetate for 1 min. Images were taken at a 68,000× magnification and 100 nm under focus. Mutant-hIAPP polypeptides of the present disclosure were further analyzed using TEM. […] In contrast, no amyloid fibrils were formed after a 1 week (FIGS. 3B-E, left) or 6 week (FIGS. 3B-E, right) culture with the any of the mutant-hIAPP analogs tested.

[6] = pH 7
Protocol: 100 μL each solution was obtained immediately following dissolution with Novolin-N® and was centrifuged using a Beckman Coulter Microfuge (22R Centrifuge) at 24° C. for 20 minutes. The relative centrifugal force used was 1.75×104 g. Aliquots of each sample were immediately frozen and lyophilized. The remaining portion of each sample was not centrifuged and were incubated at 25° C. without stirring. Samples were collected again following the same procedures after 1 day, 7 days and 30 days. Dry samples were redissolved in 4:1 HPLC buffer mix (4A:1B, below) and immediately injected for liquid chromatography-mass spectroscopy (LC-MS) measurements. The HPLC buffers were (A) H2O (0.1% acetic acid and 0.02% TFA) and (B) CH3CN (0.1% acetic acid and 0.02% TFA). Solubility of each co-formulated sample was determined by measuring the absorbance from the liquid chromatogram traces at 215±8 nm and at 277±8 nm at each time point tested. points (0 hours, 24 hours, 7 days and 30 days post-formulation).

| EC50 [3] | EC50 [4] | amyloid aggregates in TEM images [5] | Structure (SMILES) | solubility at neutral pH (absorbance of supernatant at 280 nm) [1] | amyloid formation monitored by thioflavin-T fluorescence [2] | solubility co-formulated with Novolin-N (absorbance at 215 nm and 277 nm, LC-MS) [6] | concentration-response of cAMP production compared with wild-type hIAPP [3] | concentration-response of cAMP production compared with wild-type hIAPP [4] |
| --- | --- | --- | --- | --- | --- | --- | --- | --- |
| 1.78 nM | 10.7 nM | no aggregates are observed | CC(C)C[C@H](NC(=O)[C@H](CCCNC(=N)N)NC(=O)[C@H](CCC(N)=O)NC(=O)[C@@H](NC(=O)[C@H](C)NC(=O)[C@@H]1CSSC[C@H](NC(=O)[C@@H](N)CCCCN)C(=O)N[C@@H](CC(N)=O)C(=O)N[C@@H]([C@@H](C)O)C(=O)N[C@@H](C)C(=O)N[C@@H]([C@@H](C)O)C(=O)N1)[C@@H](C)O)C(=O)N[C@@H](C)C(=O)N[C@@H](CC(N)=O)C(=O)N[C@@H](Cc1ccccc1)C(=O)N[C@@H](CC(C)C)C(=O)N[C@H](C(=O)N[C@@H](Cc1c[nH]cn1)C(=O)N[C@@H](CO)C(=O)N[C@@H](CO)C(=O)N[C@@H](CCCCN)C(=O)N[C@@H](CC(N)=O)C(=O)N[C@@H](Cc1ccccc1)C(=O)N1CCC[C@H]1C(=O)N[C@@H](C)C(=O)N1CCC[C@H]1C(=O)N[C@@H](CC(C)C)C(=O)N[C@@H](CO)C(=O)N[C@@H](CO)C(=O)N[C@H](C(=O)N[C@@H](CC(N)=O)C(=O)N[C@H](C(=O)NCC(=O)N[C@@H](CO)C(=O)N[C@@H](CCCCN)C(=O)N[C@H](C(=O)N[C@@H](Cc1ccc(O)cc1)C(N)=O)[C@@H](C)O)C(C)C)[C@@H](C)O)C(C)C [SEQ ID NO: 8] (HELM PEPTIDE1{K.C.N.T.A.T.C.A.T.Q.R.L.A.N.F.L.V.H.S.S.K.N.F.P.A.P.L.S.S.T.N.V.G.S.K.T.Y.[am]}$PEPTIDE1,PEPTIDE1,2:R3-7:R3$$$V2.0) | more substantially soluble than wild-type hIAPP | none of the mutant hIAPP polypeptides forms amyloid | significantly higher absorbance when compared to both wild-type hIAPP and paramlintide | – | – |
| 3.39 nM | 5.01 nM | no aggregates are observed | CC(C)C[C@H](NC(=O)[C@H](CCCNC(=N)N)NC(=O)[C@H](CCC(N)=O)NC(=O)[C@@H](NC(=O)[C@H](C)NC(=O)[C@@H]1CSSC[C@H](NC(=O)[C@@H](N)CCCCN)C(=O)N[C@@H](CC(N)=O)C(=O)N[C@@H]([C@@H](C)O)C(=O)N[C@@H](C)C(=O)N[C@@H]([C@@H](C)O)C(=O)N1)[C@@H](C)O)C(=O)N[C@@H](C)C(=O)N[C@@H](CC(N)=O)C(=O)N[C@@H](Cc1ccccc1)C(=O)N[C@@H](CC(C)C)C(=O)N[C@H](C(=O)N[C@@H](Cc1c[nH]cn1)C(=O)N[C@@H](CO)C(=O)N[C@@H](CO)C(=O)N[C@@H](CC(N)=O)C(=O)N[C@@H](CCCCN)C(=O)N[C@@H](Cc1ccccc1)C(=O)N1CCC[C@H]1C(=O)N[C@@H](C)C(=O)N1CCC[C@H]1C(=O)N[C@@H](CC(C)C)C(=O)N[C@@H](CO)C(=O)N[C@@H](CO)C(=O)N[C@H](C(=O)N[C@@H](CCCCN)C(=O)N[C@H](C(=O)NCC(=O)N[C@@H](CO)C(=O)N[C@@H](CC(N)=O)C(=O)N[C@H](C(=O)N[C@@H](Cc1ccc(O)cc1)C(N)=O)[C@@H](C)O)C(C)C)[C@@H](C)O)C(C)C [SEQ ID NO: 10] (HELM PEPTIDE1{K.C.N.T.A.T.C.A.T.Q.R.L.A.N.F.L.V.H.S.S.N.K.F.P.A.P.L.S.S.T.K.V.G.S.N.T.Y.[am]}$PEPTIDE1,PEPTIDE1,2:R3-7:R3$$$V2.0) | more substantially soluble than wild-type hIAPP | none of the mutant hIAPP polypeptides forms amyloid | significantly higher absorbance when compared to both wild-type hIAPP and paramlintide | do not significantly alter amylin or calcitonin receptor activity | do not significantly alter amylin or calcitonin receptor activity |
